Measured values as given in patent US8614206B2 (Genentech, Inc., priority 2011, dated 2013).
Read-outs that look alike come from different tables or passages of the source.

Legend:
BaF3 parental cells = assay: In vitro cell proliferation, BaF3 parental line + IL3 (CellTiter-Glo); format: cell-based, murine
[1] = tested on: MM1.S (multiple myeloma) cells; assay: In vitro cell proliferation, MM1.S multiple myeloma cells (CellTiter-Glo, ATP); format: cell-based; details: read-out: Prolif MM1S ATP (EC50)
Description: BaF3, a murine interleukin-3 dependent pro-B cell line, parental cells, BaF3 PIM1 cells, BaF3 PIM2 cells, and MM1.S (multiple myeloma) cells were seeded at 2 k/well, 5 k/well, 5 k/well, and 10 k/well respectively, in a 384-well plate, at 45 μL/well. Test compound was added at 5 μL/well. BaF3 cells (parental and transfected) were incubated overnight, while MM1.S cells were incubated for 72 hours at 37° C., 5% CO2. […] IC50/EC50 values for the test compound were calculated.

PIM1 = PIM1 (Homo sapiens (Human), UniProt P11309); assay: Pim kinase inhibition, PIM1 LC3K (Example 901); format: biochemical
Sequence of PIM1 (P11309 whole entry): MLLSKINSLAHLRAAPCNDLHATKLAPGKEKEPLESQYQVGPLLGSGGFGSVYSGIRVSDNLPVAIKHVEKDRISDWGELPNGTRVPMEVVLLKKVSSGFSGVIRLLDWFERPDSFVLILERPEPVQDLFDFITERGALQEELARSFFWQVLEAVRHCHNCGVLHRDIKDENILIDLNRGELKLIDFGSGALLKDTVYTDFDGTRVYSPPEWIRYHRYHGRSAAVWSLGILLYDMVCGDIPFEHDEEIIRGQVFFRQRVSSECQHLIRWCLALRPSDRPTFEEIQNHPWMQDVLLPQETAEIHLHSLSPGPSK
Description: Determination of the Pim kinase activity of a Formula I compound is possible by a number of direct and indirect detection methods.

[2] = Mus musculus, BaF3, BaF3 parental cells with IL-3, incubated overnight, read-out: Prolif BaF3 IL3 (IC50)
[3] = Mus musculus, BaF3, BaF3 parental cells with IL-3, incubated overnight, read-out: Prolif BaF3 + IL3 (IC50)
[4] = BaF3 parental cells with IL-3, incubated overnight, read-out: Prolif BaF3 + IL3 (IC50)

Cn1ncc(NC(=O)c2nc(-c3c(F)cccc3F)sc2N)c1N1CC[C@H](N)C[C@@H](F)C1 (stereo in doubt) [Example 154, 5-amino-N-(5-(5-amino-3-fluoroazepan-1-yl)-1-methyl-1H-pyrazol-4-yl)-2-(2,6-difluorophenyl)thiazole-4-carboxamide]
IC50 (BaF3 parental cells; [2]): 24.5 µM
EC50 ([1]; Homo sapiens, MM1.S, 72 h): 0.0651 µM

CO[C@H]1CC=C(c2c(NC(=O)c3nc(-c4c(F)cccc4F)sc3N)cnn2C)CC[C@@H]1N [Example 410, 5-amino-N-(5-((4S,5S)-5-amino-4-methoxycyclohept-1-enyl)-1-methyl-1H-pyrazol-4-yl)-2-(2,6-difluorophenyl)thiazole-4-carboxamide]
IC50 (BaF3 parental cells; [3]): 9.2 µM
EC50 ([1]; Homo sapiens, MM1.S, 72 h): 0.693 µM

COC1CC(N)CCN(c2c(NC(=O)c3nc(-c4c(F)cccc4F)sc3N)cnn2C)C1 (stereo not drawn) [Example 320, 5-amino-N-[5-(5-amino-3-methoxy-azepan-1-yl)-1-methyl-pyrazol-4-yl]-2-(2,6-difluorophenyl)thiazole-4-carboxamide]
IC50 (BaF3 parental cells; [3]): 25 µM
EC50 ([1]; 72 hours): 0.118 µM

Nc1sc(-c2c(F)cccc2F)nc1C(=O)Nc1cnn(CC(F)F)c1N1CC[C@@H](O)[C@@H](N)CC1 [Example 375, 5-amino-N-(5-((4S,5R)-4-amino-5-hydroxyazepan-1-yl)-1-(2,2-difluoroethyl)-1H-pyrazol-4-yl)-2-(2,6-difluorophenyl)thiazole-4-carboxamide]
Ki (PIM1): 0.051 nM
EC50 ([1]; Homo sapiens, MM1.S, 72 h): 0.0706 µM

Cn1ncc(NC(=O)c2nc(-c3ccccc3F)sc2N)c1N1CC[C@@H](N)[C@H](F)CC1 (single isomer, unassigned) [Example 230]
IC50 (BaF3 parental cells; [2]): 18.1 µM
EC50 ([1]; Homo sapiens, MM1.S, 72 h): 1.3 µM

Cn1ncc(NC(=O)c2nc(-c3c(F)cccc3F)sc2N)c1N1CCNC[C@]2(CCO2)C1 (single isomer, unassigned) [Example 483]
IC50 (BaF3 parental cells; [3]): > 25 µM
EC50 ([1]; Homo sapiens, MM1.S, 72 h): > 25 µM

Cn1ncc(NC(=O)c2nc(-c3c(F)cccc3F)sc2N)c1N1CCCC(C)(N)CC1 (stereo not drawn) [Example 435, 5-amino-N-[5-(4-amino-4-methyl-azepan-1-yl)-1-methyl-pyrazol-4-yl]-2-(2,6-difluorophenyl)thiazole-4-carboxamide]
IC50 (BaF3 parental cells; [3]): 9.8 µM
EC50 ([1]; Homo sapiens, MM1.S, 72 h): 1.8 µM

CC[C@H]1CNCCN1c1c(NC(=O)c2nc(-c3c(F)cccc3F)sc2N)cnn1C [Example 113, (S)-5-Amino-2-(2,6-difluorophenyl)-N-(5-(2-ethylpiperazin-1-yl)-1-methyl-1H-pyrazol-4-yl)thiazole-4-carboxamide]
IC50 (BaF3 parental cells; [2]): > 25 µM
EC50 ([1]; Homo sapiens, MM1.S, 72 h): 19 µM

Cn1ncc(NC(=O)c2nc(-c3c(F)cccc3F)sc2N)c1C1CCC(N)CC(C)(O)C1 (single isomer, unassigned) [Example 456, 5-amino-N-[5-(5-amino-3-hydroxy-3-methyl-cycloheptyl)-1-methyl-pyrazol-4-yl]-2-(2,6-difluorophenyl)thiazole-4-carboxamide]
IC50 (BaF3 parental cells; [3]): > 25 µM
EC50 ([1]; 72 hours): > 25 µM

CO[C@H]1CCC(c2c(NC(=O)c3nc(-c4ccccc4F)sc3N)cnn2C)CC[C@@H]1N (single isomer, unassigned) [Example 414]
IC50 (BaF3 parental cells; [3]): > 25 µM
EC50 ([1]; Homo sapiens, MM1.S, 72 h): 0.0699 µM

CO[C@@H]1CCN(c2c(NC(=O)c3nc(-c4c(F)cccc4F)sc3N)cnn2C)CC2(CC2)[C@@H]1N [Example 517, 5-amino-N-(5-((8R,9S)-9-amino-8-methoxy-5-azaspiro[2.6]nonan-5-yl)-1-methyl-1H-pyrazol-4-yl)-2-(2,6-difluorophenyl)thiazole-4-carboxamide]
IC50 (BaF3 parental cells; [3]): 11.9 µM
EC50 ([1]; Homo sapiens, MM1.S, 72 h): 9.9 µM

COC1CCC(c2c(NC(=O)c3nc(-c4ccccc4F)sc3N)cnn2C)CCC1N (stereo not drawn) [Example 506]
IC50 (BaF3 parental cells; [4]): 17.1 µM
EC50 ([1]; 72 hours): 11.7 µM

COC1CCN(c2c(NC(=O)c3nc(-c4c(F)cccc4F)sc3N)cnn2C)CCC1N (stereo not drawn) [Example 314, 5-amino-N-[5-(4-amino-5-methoxy-azepan-1-yl)-1-methyl-pyrazol-4-yl]-2-(2,6-difluorophenyl)thiazole-4-carboxamide]
IC50 (BaF3 parental cells; [3]): 13.9 µM
EC50 ([1]; 72 hours): 9 µM

Cn1ncc(NC(=O)c2nc(-c3c(F)cccc3F)sc2N)c1N1CCC(N)C(O)CC1 (single isomer, unassigned) [Example 328, 5-amino-N-[5-(4-amino-5-hydroxy-azepan-1-yl)-1-methyl-pyrazol-4-yl]-2-(2,6-difluorophenyl)thiazole-4-carboxamide]
IC50 (BaF3 parental cells; [4]): > 25 µM
EC50 ([1]; 72 hours): 11.5 µM

CCOC1CCN(c2c(NC(=O)c3nc(-c4c(F)cccc4F)sc3N)cnn2C)CCC1N (stereo not drawn) [Example 514, 5-amino-N-[5-(4-amino-5-ethoxy-azepan-1-yl)-1-methyl-pyrazol-4-yl]-2-(2,6-difluorophenyl)thiazole-4-carboxamide]
IC50 (BaF3 parental cells; [3]): 15.4 µM
EC50 ([1]; 72 hours): 3.1 µM

COC1CC(N)CCN(c2c(NC(=O)c3nc(-c4c(F)cccc4F)sc3N)cnn2C)C1 (stereo not drawn) [Example 316, 5-amino-N-[5-(5-amino-3-methoxy-azepan-1-yl)-1-methyl-pyrazol-4-yl]-2-(2,6-difluorophenyl)thiazole-4-carboxamide]
IC50 (BaF3 parental cells; [4]): > 25 µM
EC50 ([1]; 72 hours): 0.163 µM

CCn1ncc(NC(=O)c2nc(-c3ccccc3F)sc2N)c1N1CCC(N)C(OC)CC1 (stereo not drawn) [Example 392, 5-amino-N-[5-(4-amino-5-methoxy-azepan-1-yl)-1-ethyl-pyrazol-4-yl]-2-(2-fluorophenyl)thiazole-4-carboxamide]
Ki (PIM1): 0.668 nM
EC50 ([1]; Homo sapiens, MM1.S, 72 h): 0.202 µM

CCn1ncc(NC(=O)c2nc(-c3c(F)cccc3F)sc2N)c1N1CCC(N)C(OC)CC1 (single isomer, unassigned) [Example 390, 5-amino-N-[5-(4-amino-5-methoxy-azepan-1-yl)-1-ethyl-pyrazol-4-yl]-2-(2,6-difluorophenyl)thiazole-4-carboxamide]
Ki (PIM1): 0.192 nM
EC50 ([1]; 72 hours): 0.147 µM

Cn1ncc(NC(=O)c2nc(-c3c(F)cccc3F)sc2N)c1N1CC[C@@H](N)C[C@@H](F)C1 [Example 126, 5-amino-N-(5-((3R,5R)-5-amino-3-fluoroazepan-1-yl)-1-methyl-1H-pyrazol-4-yl)-2-(2,6-difluorophenyl)thiazole-4-carboxamide]
IC50 (BaF3 parental cells; [2]): > 25 µM
EC50 ([1]; Homo sapiens, MM1.S, 72 h): 0.11 µM

Cn1ncc(NC(=O)c2nc(-c3c(F)cccc3F)sc2N)c1C1CCC(N)CC(C)(O)C1 (single isomer, unassigned) [Example 467, 5-amino-N-[5-(5-amino-3-hydroxy-3-methyl-cycloheptyl)-1-methyl-pyrazol-4-yl]-2-(2,6-difluorophenyl)thiazole-4-carboxamide]
IC50 (BaF3 parental cells; [4]): > 25 µM
EC50 ([1]; 72 hours): 4.8 µM

Cn1ncc(NC(=O)c2nc(-c3c(F)cccc3F)sc2N)c1N1CCCC(C)(N)CC1 (single isomer, unassigned) [Example 436, 5-amino-N-[5-(4-amino-4-methyl-azepan-1-yl)-1-methyl-pyrazol-4-yl]-2-(2,6-difluorophenyl)thiazole-4-carboxamide]
IC50 (BaF3 parental cells; [3]): 8.3 µM
EC50 ([1]; Homo sapiens, MM1.S, 72 h): 4.9 µM

Cn1ncc(NC(=O)c2nc(-c3c(F)cccc3F)sc2N)c1N1CC[C@@H](N)[C@H](F)CC1 [Example 139, 5-amino-N-(5-((4R,5R)-4-amino-5-fluoroazepan-1-yl)-1-methyl-1H-pyrazol-4-yl)-2-(2,6-difluorophenyl)thiazole-4-carboxamide]
EC50 ([1]; Homo sapiens, MM1.S, 72 h): 0.0684 µM

CCn1ncc(NC(=O)c2nc(-c3c(F)cccc3F)sc2N)c1N1CCC(N)C(F)CC1 (single isomer, unassigned) [Example 370, 5-amino-N-[5-(4-amino-5-fluoro-azepan-1-yl)-1-ethyl-pyrazol-4-yl]-2-(2,6-difluorophenyl)thiazole-4-carboxamide]
Ki (PIM1): 0.093 nM
EC50 ([1]; Homo sapiens, MM1.S, 72 h): 0.118 µM

Nc1sc(-c2c(F)cccc2F)nc1C(=O)Nc1cnn(CC(F)F)c1N1CCC(N)C(O)CC1 (single isomer, unassigned) [Example 398, 5-amino-N-[5-(4-amino-5-hydroxy-azepan-1-yl)-1-(2,2-difluoroethyl)pyrazol-4-yl]-2-(2,6-difluorophenyl)thiazole-4-carboxamide]
Ki (PIM1): 0.142 nM
EC50 ([1]; 72 hours): 5.7 µM

CO[C@H]1CCN(c2c(NC(=O)c3nc(-c4c(F)cccc4F)sc3N)cnn2C2CC2)CC[C@@H]1N [Example 365, 5-amino-N-(5-((4S,5S)-4-amino-5-methoxyazepan-1-yl)-1-cyclopropyl-1H-pyrazol-4-yl)-2-(2,6-difluorophenyl)thiazole-4-carboxamide]
Ki (PIM1): 0.219 nM
EC50 ([1]; Homo sapiens, MM1.S, 72 h): 0.606 µM

Cn1ncc(NC(=O)c2nc(-c3ncccc3F)sc2N)c1N1CC[C@@H](F)[C@@H](N)CC1 [Example 388, 5-amino-N-(5-((4S,5R)-4-amino-5-fluoroazepan-1-yl)-1-methyl-1H-pyrazol-4-yl)-2-(3-fluoropyridin-2-yl)thiazole-4-carboxamide]
Ki (PIM1): 0.462 nM
EC50 ([1]; Homo sapiens, MM1.S, 72 h): 0.396 µM

CO[C@@H]1[C@H](N)CCN(c2c(NC(=O)c3nc(-c4c(F)cccc4F)sc3N)cnn2C)CC12CC2 [Example 516, 5-amino-N-(5-((8R,9S)-8-amino-9-methoxy-5-azaspiro[2.6]nonan-5-yl)-1-methyl-1H-pyrazol-4-yl)-2-(2,6-difluorophenyl)thiazole-4-carboxamide]
EC50 ([1]; Homo sapiens, MM1.S, 72 h): 5.7 µM

Nc1sc(-c2c(F)cccc2F)nc1C(=O)Nc1cnn(CC(F)F)c1N1CCC(N)C(O)CC1 (single isomer, unassigned) [Example 399, 5-amino-N-[5-(4-amino-5-hydroxy-azepan-1-yl)-1-(2,2-difluoroethyl)pyrazol-4-yl]-2-(2,6-difluorophenyl)thiazole-4-carboxamide]
Ki (PIM1): 0.018 nM
EC50 ([1]; 72 hours): 0.0419 µM
